Our source for the Activity and logP values is ChEMBL document CHEMBL1240309 (Nat Chem Biol, 2006).

For series [1], the system named is Caenorhabditis elegans. Description: Antiapoptotic activity against Caenorhabditis elegans ced-3(n2438) mutant assessed as number of extra cells in anterior pharynx at 50 to 250 mM dissolved in soybean oil. The format is functional, organism-based.
Series [2] concerns Caenorhabditis elegans. Description: Antiapoptotic activity against Caenorhabditis elegans ced-3(n2438) G474R mutant assessed as number of extra cells in anterior pharynx L3 and L4 larvae at 250 mM dissolved in soybean oil. The format is functional, organism-based.
The test system of series [3] is Caenorhabditis elegans. Put plainly: Antiapoptotic activity against Caenorhabditis elegans ced-3(n2447) S446L mutant assessed as number of extra cells in anterior pharynx L3 and L4 larvae at 250 mM dissolved in soybean oil. The class given is functional, organism-based.
The test system of series [4] is Caenorhabditis elegans. Description: Antiapoptotic activity against Caenorhabditis elegans ced-3(n2436) mutant assessed as number of extra cells in anterior pharynx L3 and L4 larvae at 250 mM dissolved in soybean oil. The format is functional, organism-based.
In series [5] the test system is Caenorhabditis elegans. Description: Antiapoptotic activity against Caenorhabditis elegans ced-4(n2273) mutant assessed as number of extra cells in anterior pharynx L3 and L4 larvae at 250 mM dissolved in soybean oil. The format is functional, organism-based.
In series [6] the test system is Caenorhabditis elegans. Put plainly: Antiapoptotic activity against Caenorhabditis elegans ced-8(n1891) mutant assessed as number of extra cells in anterior pharynx L3 and L4 larvae at 250 mM dissolved in soybean oil. The class given is functional, organism-based.
For series [7], the system named is Caenorhabditis elegans. Put plainly: Antiapoptotic activity against Caenorhabditis elegans ced-9(n1950) mutant assessed as number of extra cells in anterior pharynx L3 and L4 larvae at 250 mM dissolved in soybean oil. The format is functional, organism-based.
The subject of series [8] is Caenorhabditis elegans. Description: Antiapoptotic activity against Caenorhabditis elegans ced-3(n2433) mutant assessed as number of extra cells in anterior pharynx L3 and L4 larvae at 250 mM dissolved in soybean oil. The format is functional, organism-based.
Series [9] in a line: Octanol-water partition coefficient, log P of the compound. The format is physicochemical.

The structures appear in SMILES notation. The source made the active and inactive calls. No cut-off for these calls is given here.

As for `CCCCC(CC)COC(=O)c1ccccc1C(=O)OCC(CC)CCCC` (centres undefined), the result in the series with Caenorhabditis elegans [1] was inactive.
With `Clc1ccc(Cl)cc1` [1,4-DICHLOROBENZENE], the outcome in the series on Caenorhabditis elegans [2], with Caenorhabditis elegans [3], with Caenorhabditis elegans [4], with Caenorhabditis elegans [5], in the series with Caenorhabditis elegans [6] and in the series on Caenorhabditis elegans [7] was Active. Further, the result in the series on Caenorhabditis elegans [8] was Active. Moreover, in [9], the logP was 3.5.
